# Numbered stars: 1 amine (or outer) side, 2 acyl side, 3 side chain; on linkers, the order of the positions; unused ones are H or OH. Side chains are listed from the residue outwards. Peptide text beside a SMILES is read from it. * marks the point of attachment. Tos = Cc1ccc(S(=O)(=O)*)cc1; CO = O=C([*:1])[*:2]; OiPr = CC(C)O*
# System: rats or guinea pigs
# Experiment: Experimental Autoimmune (or Allergic) Encephalomyelitis (EAE) model, motor impairment
# Assay type: in vivo
# Settings: treatment from Day 8, 10 mg/kg to 200 mg/kg bid for five days, SC, PO or IP
row,SMILES,"active in EAE in vivo assay (delayed the onset of symptoms, e.g., clinical scores no greater than 2 or slowed body weight loss as compared to the control)"
1,"Cc1ccc(S(=O)(=O)N2CSC(C)(C)[C@H]2C(=O)N[C@@H](Cc2ccc(OC(=O)N(C)C)cc2)C(=O)OC(C)C)cc1 [Example 11, N-(Toluene-4-sulfonyl)-L-(5,5-dimethyl)thiaprolyl-L-4-(N,N-dimethylcarbamyloxy)phenylalanine Isopropyl Ester]",active
2,"Cc1ccc(S(=O)(=O)N2CCC[C@H]2C(=O)N[C@@H](Cc2ccc(OC(=O)N3CCN(C)CC3)cc2)C(=O)OC(C)(C)C)cc1 [Example 4, N-(Toluene-4-sulfonyl)-L-prolyl-L-4-(4-methylpiperazin-1-ylcarbonyloxy)phenylalanine tert-Butyl Ester]",active
3,"Cc1ccc(S(=O)(=O)N2CCC[C@H]2C(=O)N[C@@H](Cc2ccc(OC(=O)N(C)C)cc2)C(=O)OC(C)C)cc1 [Example 101, N-(Toluene-4-sulfonyl)-L-prolyl-L-4-(N,N-dimethylcarbamyloxy)-L-phenylalanine Isopropyl Ester] (Tos-Pro-Tyr([CO-NMe2])-OiPr)",active
4,"Cc1ccc(S(=O)(=O)N2CCC[C@H]2C(=O)N[C@@H](Cc2ccc(OC(=O)N(C)C)cc2)C(=O)O)cc1 [Example 9, N-(Toluene-4-sulfonyl)-L-prolyl-L-4-(N,N-dimethylcarbamyloxy)phenylalanine] (Tos-Pro-Tyr([CO-NMe2])-OH)",active
5,"Cc1ccc(S(=O)(=O)N2CCS(=O)(=O)C[C@@H]2C(=O)N[C@@H](Cc2ccc(OC(=O)N(C)C)cc2)C(=O)OC(C)C)cc1 [Example 73, N-(Toluene-4-sulfonyl)-L-(1,1-dioxothiamorpholin-3-carbonyl)-L-4-(N,N-dimethylcarbamyloxy)phenylalanine Isopropyl Ester]",active
6,"Cc1ccc(S(=O)(=O)N2CSC(C)(C)[C@H]2C(=O)N[C@@H](Cc2ccc(OC(=O)N(C)C)cc2)C(=O)OC(C)(C)C)cc1 [Example 12, N-(Toluene-4-sulfonyl)-L-(5,5-dimethyl)thiaprolyl-L-4-(N,N-dimethylcarbamyloxy)phenylalanine tert-Butyl Ester]",active
7,"CC(C)OC(=O)[C@H](Cc1ccc(OC(=O)N(C)C)cc1)NC(=O)[C@@H]1CCCN1S(=O)(=O)c1cnn(C)c1 [Example 137, N-(Methyl-pyrazole-4-sulfonyl)-L-prolyl-L-(4-N,N-dimethylcarbamyloxy)-phenylalanine Isopropyl Ester]",active
8,"CN(C)C(=O)Oc1ccc(C[C@H](NC(=O)[C@@H]2CCCN2S(=O)(=O)c2cnn(C)c2)C(=O)OC(C)(C)C)cc1 [Example 117, N-(Methyl-pyrazole-4-sulfonyl)-L-prolyl-L-(4-N,N-dimethylcarbamyloxy)phenylalanine tert-Butyl Ester]",active
9,"Cc1ccc(S(=O)(=O)N2CSC(C)(C)[C@H]2C(=O)N[C@@H](Cc2ccc(OC(=O)N3CCN(C)CC3)cc2)C(=O)OC(C)(C)C)cc1 [Example 16, N-(Toluene-4-sulfonyl)-L-(5,5-dimethyl)thiaprolyl-L-4-(4-methylpiperazin-1-ylcarbonyloxy)phenylalanine tert-Butyl Ester]",active
10,"Cc1ccc(S(=O)(=O)N2CCC[C@H]2C(=O)N[C@@H](Cc2ccc(OC(=O)N3CCSCC3)cc2)C(=O)OC(C)(C)C)cc1 [Example 82, N-(Toluene-4-sulfonyl)-L-prolyl-L-4-(thiomorpholin-4-ylcarbonyloxy)phenylalanine tert-Butyl Ester]",active
11,"CN(C)C(=O)Oc1ccc(C[C@H](NC(=O)[C@H]2N(S(=O)(=O)c3ccc(F)cc3)CSC2(C)C)C(=O)OC(C)(C)C)cc1 [Example 95, N-(4-Fluorobenzenesulfonyl)-L-(5,5-dimethyl)thiaprolyl-L-4-(N,N-dimethylcarbamyloxy)phenylalanine tert-Butyl Ester]",active
12,"Cc1ccc(S(=O)(=O)N2CS(=O)(=O)C(C)(C)[C@H]2C(=O)N[C@@H](Cc2ccc(OC(=O)N(C)C)cc2)C(=O)OC(C)C)cc1 [Example 75, N-(Toluene-4-sulfonyl)-L-(1,1-dioxo-5,5-dimethyl)thiaprolyl-L-4-(N,N-dimethylcarbamyloxy)phenylalanine Isopropyl Ester]",active
13,"Cc1ccc(S(=O)(=O)N2CCS(=O)(=O)C[C@@H]2C(=O)N[C@@H](Cc2ccc(OC(=O)N(C)C)cc2)C(=O)OC(C)(C)C)cc1 [Example 51, N-(Toluene-4-sulfonyl)-L-(1,1-dioxothiamorpholin-3-carbonyl)-L-4-(N,N-dimethylcarbamyloxy)phenylalanine tert-Butyl Ester]",active

# System: not given
# Experiment: not given
# Settings: not given
row,SMILES,melting point
1,Cc1ccc(S(=O)(=O)N2CCC[C@H]2C(=O)N[C@@H](Cc2ccc(OC(=O)N3CCN(CCO)CC3)cc2)C(=O)OC(C)(C)C)cc1,158 to 160 °C

# From patent US6525026B2, “Carbamyloxy compounds which inhibit leukocyte adhesion mediated by VLA-4” (Elan Pharmaceuticals, Inc., priority 1997, dated 2003)
